Results on one compound are retold here after patent publication US20230310636A1, “COMBINATION THERAPIES FOR TREATMENT OF CANCER WITH THERAPEUTIC BINDING MOLECULES” (MedImmune Limited, priority 2022, published 2023).

Each structure is given as a SMILES string.

For data set [1] the following is noted: preclinical models; cited from earlier work.
Data set [2] concerns MDA-MB-468 breast cancer xenografts. Kind of data set: MDA-MB-468 breast cancer xenograft, ADC with AZD5305. It counts as in vivo, mice. As to conditions: AZD5305 individually, 0.1 mg/kg and 1 mg/kg, once daily oral, 28 days; FIG. 7. How it is done: MDA-MB-468 cells were injected 5×10^6 per mouse into the mammary fat pad of female CB-17 SCID mice. […] Tumor and body weight measurements were recorded twice weekly for the duration of the study.
All animal experiments were conducted in a facility accredited by the Association for Assessment and Accreditation of Laboratory Animal Care under the guidelines of AstraZeneca's Institutional Animal Care and Use Committee and appropriate animal research approvals. Cell line xenograft models were established through subcutaneous implantation of cells in 50% Matrigel (Corning, Corning, NY, USA) in either the right mammary fat pad (MX-1, MDA-MB-468) or left flank (HT29, HT29-huB7-H4) of female CB-17 mice (Envigo, Frederick, MD, USA). When tumor volume reached 150-200 mm^3, mice were randomized and given a single intravenous (IV) injection of vehicle control (20 mM histidine, pH 6; 240 mM sucrose; 0.02% PS-80) or ADCs. Body weight and tumor measurements were determined once or twice weekly, and tumor volume was calculated with the formula

On to `CCc1cc2ncc(CN3CCN(c4ccc(C(=O)NC)nc4)CC3)cc2[nH]c1=O` [AZD5305, 5-[4-[(7-ethyl-6-oxo-5H-1,5-naphthyridin-3-yl)methyl]piperazin-1-yl]-N-methyl-pyridine-2-carboxamide], for which the “hematological toxicity in comparison with non-selective PARPi” value in data set [1] is listed as “reduced hematological toxicity”. For the same compound, in data set [2], the “anti-tumor activity in vivo (tumor size over time)” value is reported as “little to no anti-tumor activity”.
